Results reported in article PMC6429356, “Development of Anthraquinone Analogues as Phosphoglycerate Mutase 1 Inhibitors” (Molecules, 2019).
Read-outs that look alike come from different tables or passages of the source.

Legend:
H1299 cells [1] = test: Cell viability assay (MTT, 72 h), H1299; assay type: cell-based; details: Homo sapiens, NCI-H1299, proliferation, mean ± s.d. (n = 3)
Method: (§1) The H1299 cell line was obtained from Guangzhou Jenniobio Biotechnology Co., Ltd. (Guangzhou, China), PC9 and A549 cells were gifted from Deng Jiong’s lab in the School of Medicine, Shanghai Jiao Tong University, Shanghai, China). H1299, PC9 cells were cultured in RPMI-1640 medium and A549 cells were cultured in F-12K medium containing 10% fetal bovine serum (FBS), 100 units/mL of Penicillin and 100 μg/mL Streptomycin. In cell viability assays, 2000 H1299 cells, A549 cells or 1000 PC9 cells per well were seeded in 96-well plate. After attachment for 24 h, the cells were treated with indicated inhibitor for 72 h. After incubation with 0.5 mg/mL methylthiazolyldiphenyl-tetrazolium bromide (MTT) for 4 h, cell viability was measured as the OD at 570 nm.

PGAM1 = target: T1, PGAM1 (Homo sapiens, UniProt P18669); test: PGAM1 enzymatic assay (enolase-pyruvate kinase-LDH coupled, OD 340 nm); assay type: biochemical; details: optimized enzymatic assay; mean ± s.d. (n = 3)
T1 construct: His6 (C); made in house
T1 sequence (P18669 whole entry): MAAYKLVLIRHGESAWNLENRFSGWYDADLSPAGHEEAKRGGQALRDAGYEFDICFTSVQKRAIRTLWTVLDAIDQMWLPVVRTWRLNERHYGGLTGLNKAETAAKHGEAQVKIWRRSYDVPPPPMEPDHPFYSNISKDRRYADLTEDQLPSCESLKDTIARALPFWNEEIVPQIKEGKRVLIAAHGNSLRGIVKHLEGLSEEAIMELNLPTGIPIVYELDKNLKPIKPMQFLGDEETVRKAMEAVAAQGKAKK
Method: (§2) Firstly, 1 μL inhibitor in dimethyl sulfoxide (DMSO) incubated with 49 μL 4.6 nM recombinant PGAM1, then 50 μL enzyme mix containing 3 units/mL enolase (Sigma-Aldrich, Saint Louis, MO, USA), 3 units/mL recombinant pyruvate kinase M2 (Sigma-Aldrich), 0.6 units/mL recombinant lactatdehydrogenase (LDH, Sigma-Aldrich), 100 mM Tris-HCl, 100 mM KCl, 5 mM MgCl2, 1 mM adenosine diphosphate (ADP), 0.2 mM the reduced form of nicotinamide adenine dinucleotide (NADH) and 4 mM 3PG was added. PGAM1 activity was measured as the decrease in OD at 340 nm. In addition, we performed a counter screening in which 4mM 2PG was added to 50 μL reaction mix containing the indicated inhibitor, 3 units/mL enolase (Sigma-Aldrich), 3 units/mL recombinant pyruvate kinase M2 (Sigma-Aldrich), 0.6 units/mL recombinant LDH (Sigma-Aldrich), 100 mM Tris-HCl, 100 mM KCl, 5 mM MgCl2, 1 mM ADP and 0.2 mM NADH. The other three enzyme activity was measured as the decrease in OD at 340 nm.

[2] = tested on: enolase-pyruvate kinase-LDH; test: Counter screening: control linked enzyme assay with 2PG; assay type: biochemical; details: 0.5 μM compound, pyruvate kinase M2, LDH without PGAM1, mean ± s.d. (n = 2)
Method: as §2

A549 cells = test: Cell viability assay (MTT, 72 h), A549; assay type: cell-based; details: Homo sapiens, proliferation, mean ± s.d. (n = 3)
Method: as §1

PC9 cells = test: Cell viability assay (MTT, 72 h), PC9; assay type: cell-based; details: Homo sapiens, PC-9, proliferation, mean ± s.d. (n = 3)
Method: as §1

H1299 cells [3] = tested on: H1299 cells; set-up: method as in PMID 28611670, PMID 23153533, PMID 29530347; details: Figure 1; read-out: H1299 cells IC50 (reported inhibitors); cited from earlier work

Row | IC50 (H1299 cells [1]) [µM] | IC50 (PGAM1) [µM] | Inhibition in the Control Linked Enzyme Assay (0.5 μM) [2] [%] | IC50 (A549 cells) [µM] | IC50 (PC9 cells) [µM] | Structure (SMILES) | IC50 (H1299 cells [3]) [µM]
1 | 17.3 ± 3.9 | 0.47 ± 0.07 | 1.9 ± 0.1 | 10.3 ± 1.4 | 13.4 ± 1.8 | O=C1c2ccccc2C(=O)c2c1cc(NS(=O)(=O)c1ccc(I)cc1)c(O)c2O [Compound 9p, 4-Iodo-N-(3,4-dihydroxy-9,10-dioxo-9,10-dihydroanthracen-2-yl) benzenesulfonamide] | –
2 | 6.2 ± 1.2 | 0.9 ± 0.26 | 0.2 ± 1.7 | > 50 | > 50 | O=C1c2ccccc2C(=O)c2c1cc(NS(=O)(=O)c1c(Cl)cc(Cl)cc1Cl)c(O)c2O [Compound 9l, 2,4,6-Trichloro-N-(3,4-dihydroxy-9,10-dioxo-9,10-dihydroanthracen-2-yl) benzenesulfonamide] | –
3 | 24.2 ± 2.6 | 0.54 ± 0.07 | 5.7 ± 0.7 | – | – | O=C1c2ccccc2C(=O)c2c1cc(NS(=O)(=O)c1ccc(F)cc1)c(O)c2O [Compound 9f, N-(3,4-Dihydroxy-9,10-dioxo-9,10-dihydroanthracen-2-yl)-4-fluorobenzenesulfonamide] | –
4 | 31.3 ± 1.9 | 0.79 ± 0.04 | 10.2 ± 3.0 | – | – | O=C1c2ccccc2C(=O)c2c1cc(NS(=O)(=O)c1ccccc1F)c(O)c2O [Compound 9g, N-(3,4-Dihydroxy-9,10-dioxo-9,10-dihydroanthracen-2-yl)-2-fluorobenzenesulfonamide] | –
5 | 50 ± 0.6 | 0.2 ± 0.04 | 6.1 ± 0.8 | – | – | O=C1c2ccccc2C(=O)c2c1cc(NS(=O)(=O)c1ccccc1Br)c(O)c2O [Compound 9n, 2-Bromo-N-(3,4-dihydroxy-9,10-dioxo-9,10-dihydroanthracen-2-yl) benzenesulfonamide] | –
6 | 28.1 ± 1.9 | 0.26 ± 0.02 | −0.1 ± 2.5 | – | – | O=C1c2ccccc2C(=O)c2c1cc(NS(=O)(=O)c1ccc(Br)cc1)c(O)c2O [Compound 9m, 4-Bromo-N-(3,4-dihydroxy-9,10-dioxo-9,10-dihydroanthracen-2-yl) benzenesulfonamide] | –
7 | 34.6 ± 2.4 | 0.89 ± 0.33 | 0.5 ± 3.2 | – | – | O=C1c2ccccc2C(=O)c2c1cc(NS(=O)(=O)c1c(Cl)cccc1Cl)c(O)c2O [Compound 9k, 2,6-Dichloro-N-(3,4-dihydroxy-9,10-dioxo-9,10-dihydroanthracen-2-yl) benzenesulfonamide] | –
8 | 23.7 ± 1.1 | 0.28 ± 0.07 | −2.0 ± 5.1 | – | – | O=C1c2ccccc2C(=O)c2c1cc(NS(=O)(=O)c1ccc(Cl)cc1Cl)c(O)c2O [Compound 9j, 2,4-Dichloro-N-(3,4-dihydroxy-9,10-dioxo-9,10-dihydroanthracen-2-yl) benzenesulfonamide] | –
9 | 45.7 ± 2.7 | 0.89 ± 0.13 | 0.06 ± 0.4 | – | – | O=C1c2ccccc2C(=O)c2c1cc(NS(=O)(=O)c1cccc(F)c1F)c(O)c2O [Compound 9h, N-(3,4-Dihydroxy-9,10-dioxo-9,10-dihydroanthracen-2-yl)-2,3-difluorobenzenesulfonamide] | –

Second part, the compound before the results:

Row | Structure (SMILES) | IC50 (H1299 cells [1]) [µM] | IC50 (PGAM1) [µM] | Inhibition in the Control Linked Enzyme Assay (0.5 μM) [2] [%] | IC50 (A549 cells) [µM] | IC50 (PC9 cells) [µM] | IC50 (H1299 cells [3]) [µM]
10 | O=C1c2ccccc2C(=O)c2c1cc(NS(=O)(=O)c1ccccc1OC(F)(F)F)c(O)c2O [Compound 9d, N-(3,4-Dihydroxy-9,10-dioxo-9,10-dihydroanthracen-2-yl)-2-(trifluoromethoxy) benzenesulfonamide] | 13.9 ± 3.6 | 2.2 ± 0.5 | – | 17 ± 4.9 | 44.2 ± 1.5 | –
11 | O=c1c2c(O)cccc2oc2cc(NS(=O)(=O)c3ccc(N4CCCC4)cc3)c(O)c(O)c12 [Compound 12r] | – | – | – | – | – | 5
12 | O=C(O[C@@H]1Cc2c(O)cc(O)cc2O[C@@H]1c1cc(O)c(O)c(O)c1)c1cc(O)c(O)c(O)c1 [EGCG, (−)-epigallocatechin-3-gallate] | – | – | – | – | – | > 80
13 | COc1c(N(C)S(=O)(=O)c2ccc(Cl)cc2)cc2c(c1O)C(=O)c1ccccc1C2=O [Compound 14d, 4-chloro-N-(4-hydroxy-3-methoxy-9,10-dioxo-9,10-dihydroanthracen-2-yl)-N-methyl-benzenesulfonamide] | 10.3 ± 0.8 | 7.01 ± 0.92 | – | 9.9 ± 0.2 | 49.1 ± 1.9 | –
14 | O=C1c2ccccc2C(=O)c2c1cc(NS(=O)(=O)c1ccc(OC(F)(F)F)cc1)c(O)c2O [Compound 9c, N-(3,4-Dihydroxy-9,10-dioxo-9,10-dihydroanthracen-2-yl)-4-(trifluoromethoxy) benzenesulfonamide] | 16.6 ± 1.8 | 0.9 ± 0.07 | 3.7 ± 1.8 | 8 ± 0.8 | 10.2 ± 0.7 | –
15 | O=C1c2ccccc2C(=O)c2c1cc(NS(=O)(=O)c1ccc(C(F)(F)F)cc1)c(O)c2O [Compound 9a, N-(3,4-Dihydroxy-9,10-dioxo-9,10-dihydroanthracen-2-yl)-4-(trifluoromethyl) benzenesulfonamide] | 20.7 ± 0.6 | 0.54 ± 0.04 | 8.0 ± 5.0 | – | – | –
16 | N#Cc1ccc(S(=O)(=O)Nc2cc3c(c(O)c2O)C(=O)c2ccccc2C3=O)cc1 [Compound 9e, 4-Cyano-N-(3,4-dihydroxy-9,10-dioxo-9,10-dihydroanthracen-2-yl) benzenesulfonamide] | 26.3 ± 4.5 | 0.61 ± 0.12 | 6.7 ± 0.2 | – | – | –
17 | O=C1c2ccccc2C(=O)c2c1cc(S(=O)(=O)Nc1ccc(C(F)(F)F)cc1)c(O)c2O [PGMI-004A] | – | – | – | – | – | 25.6
18 | O=C1c2ccccc2C(=O)c2c1cc(NS(=O)(=O)c1ccc([N+](=O)[O-])cc1)c(O)c2O [Compound 9b, N-(3,4-Dihydroxy-9,10-dioxo-9,10-dihydroanthracen-2-yl)-4-nitrobenzenesulfonamide] | 25.8 ± 2.2 | 0.47 ± 0.08 | −2.9 ± 0.3 | – | – | –
